Experimental data from PMC9760430, “A stapled chromogranin A-derived peptide homes in on tumors that express αvβ6 or αvβ8 integrins” (International Journal of Biological Sciences, 2023).
Peptide text beside a SMILES is read from it. * marks the point of attachment. X1 = CC1(C)C(/C=C/C2=C(Oc3ccc(S(=O)(=O)O)cc3)C(=C\C=C3/N(CCCCCC(=O)NCCN4C(=O)CC(*)C4=O)c4ccc(S(=O)(=O)O)cc4C3(C)C)/CCC2)=[N+](CCCCS(=O)(=O)O)c2ccc(S(=O)(=O)[O-])cc21

Tests used:
[1] = test system: orthotopically implanted BxPC-3 tumors; test: NIR-fluorescence imaging, orthotopic BxPC-3 pancreatic adenocarcinoma in nude mice; conditions: ex vivo NIR fluorescence, 24 h after 1.2 nmol i.v.
Procedure: Mice were injected with peptide-IRDye conjugate (~1 nmol) into the tail vein and imaged at various time points (0-72 h) using the IVIS Spectrum CT Imaging System (PerkinElmer) (see Supplemental Materials). For blocking experiments, mice were injected intravenously with unlabeled peptide 5a (128 nmol/mouse) 10 min before 5a-IRDye.
Figure 3 5a-IRDye homes in on orthotopically implanted BxPC-3 tumors. Nu/nu mice were orthotopically implanted with a Matrigel solution containing BxPC-3 cells or a Matrigel solution without cells (n=3-4 mice). After 18 days, mice were injected i.v. with 5a-IRDye (1.2 nmol), and NIR images were acquired after 24 h. A control mouse, which was not surgically manipulated, was injected with the vehicle and used as a reference for quantification of autofluorescence in the NIR region. (A) Representative fluorescence images of the exposed pancreas of control and tumor-bearing mice injected with or without 5a-IRDye as indicated. (B) Ex vivo fluorescence imaging and photographs of the removed pancreas. […]
Images were acquired with three-four mice simultaneously. […] For the quantification of the fluorescence uptake by the exposed pancreas the left kidney was surgically removed before imaging. Regions of interest (ROI) were drawn on the images, and the average (Avg) radiant efficiency was calculated using the Living Image 4.3.1 software (PerkinElmer). […]

Human αvβ6 = target: T1, Human αvβ6 (Homo sapiens, UniProt P06756+P18564); test: direct integrin binding assay of peptide-IRDye conjugates, human αvβ6-coated plates; conditions: plates coated with recombinant human αvβ6; conjugate 0.01-100 nM, 1 h; bound NIR fluorescence (Odyssey CLx); mean ± SE, n = 2 experiments
T1 construct: purchased Bio-Techne
T1 sequence (P06756 31-992 limits assumed): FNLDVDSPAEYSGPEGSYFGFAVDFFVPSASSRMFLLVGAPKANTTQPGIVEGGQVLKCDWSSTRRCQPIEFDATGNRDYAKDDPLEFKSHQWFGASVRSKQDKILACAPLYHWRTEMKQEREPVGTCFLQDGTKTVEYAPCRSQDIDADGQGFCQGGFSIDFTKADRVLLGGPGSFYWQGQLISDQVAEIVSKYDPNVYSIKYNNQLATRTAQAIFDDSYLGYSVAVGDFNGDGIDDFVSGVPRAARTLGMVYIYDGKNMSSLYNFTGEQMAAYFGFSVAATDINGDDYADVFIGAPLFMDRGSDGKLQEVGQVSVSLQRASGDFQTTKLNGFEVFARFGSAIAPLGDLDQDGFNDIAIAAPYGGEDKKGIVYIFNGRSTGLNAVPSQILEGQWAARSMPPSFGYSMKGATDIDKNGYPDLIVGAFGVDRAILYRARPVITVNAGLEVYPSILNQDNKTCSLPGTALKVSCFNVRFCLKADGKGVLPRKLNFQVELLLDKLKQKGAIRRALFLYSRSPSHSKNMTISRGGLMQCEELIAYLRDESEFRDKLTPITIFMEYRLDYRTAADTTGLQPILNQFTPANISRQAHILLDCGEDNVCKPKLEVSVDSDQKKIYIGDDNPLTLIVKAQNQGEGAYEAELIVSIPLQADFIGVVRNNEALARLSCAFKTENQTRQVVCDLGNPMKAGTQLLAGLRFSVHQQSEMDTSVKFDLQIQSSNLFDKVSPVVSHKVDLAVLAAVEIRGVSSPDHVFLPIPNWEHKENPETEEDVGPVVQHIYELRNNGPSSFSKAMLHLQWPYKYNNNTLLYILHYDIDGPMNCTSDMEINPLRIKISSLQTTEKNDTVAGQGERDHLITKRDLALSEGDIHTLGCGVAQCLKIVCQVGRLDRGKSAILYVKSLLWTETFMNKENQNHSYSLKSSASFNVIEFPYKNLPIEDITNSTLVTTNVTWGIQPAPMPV
T1 sequence (P18564 22-707 limits assumed): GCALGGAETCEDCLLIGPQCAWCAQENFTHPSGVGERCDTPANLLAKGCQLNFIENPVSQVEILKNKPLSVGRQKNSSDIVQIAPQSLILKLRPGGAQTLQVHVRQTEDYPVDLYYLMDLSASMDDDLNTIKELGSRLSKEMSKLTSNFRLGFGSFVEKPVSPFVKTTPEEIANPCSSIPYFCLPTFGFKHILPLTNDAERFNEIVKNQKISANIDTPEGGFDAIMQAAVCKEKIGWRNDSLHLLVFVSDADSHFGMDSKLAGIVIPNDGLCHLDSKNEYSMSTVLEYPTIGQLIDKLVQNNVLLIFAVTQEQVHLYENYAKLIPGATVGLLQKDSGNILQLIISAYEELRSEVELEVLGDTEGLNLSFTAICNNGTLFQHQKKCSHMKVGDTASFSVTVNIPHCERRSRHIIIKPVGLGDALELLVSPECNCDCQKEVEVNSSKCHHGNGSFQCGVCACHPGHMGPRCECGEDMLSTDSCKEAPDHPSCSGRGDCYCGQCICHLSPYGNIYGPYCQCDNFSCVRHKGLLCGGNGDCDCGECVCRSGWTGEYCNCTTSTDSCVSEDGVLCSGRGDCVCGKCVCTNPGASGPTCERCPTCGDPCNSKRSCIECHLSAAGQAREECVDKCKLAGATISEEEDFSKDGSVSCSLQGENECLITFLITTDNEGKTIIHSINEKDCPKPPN
Procedure: The affinity of peptide-IRDye conjugates for αvβ6 and αvβ8 integrins was determined by a direct binding assay using microtiter plates coated with αvβ6 or αvβ8 (Bio-Techne). After 1 h of incubation, the plates were washed; bound fluorescence was quantified by scanning the plates with an Odyssey CLx near-infrared fluorescence imaging system (LI-COR). […]
The simplified molecular-input line-entry system (SMILES) of 5a-, 2a-, Cys- and 5a-Scr- […]
The concentration of each conjugate was quantified by spectrophotometric analysis at 774 nm (molar absorption coefficient, 240,000 M-1, cm-1) (Figure S3B). The final yield of 5a-IRDye […]
Binding of peptide-IRDye conjugates to avb6 and avb8 integrin
The binding affinity of peptide-IRDye conjugates for human and murine avb6 and avb8 integrins was determined as follows: 96-well clear-bottom black microtiter plates (Corning® cat. 3601) were coated with 2 μg/ml avb6 or avb8 (50 µl/well), in Dulbecco’s phosphate-buffered saline containing Ca2+ and Mg2+ (DPBS) and left to incubate overnight at 4°C. […]
conjugates were added to the microtiterplates and incubated at room temperature for 1 h (see Experimental Section). After washing, bound fluorescence was measured using an Odyssey CLx (LI-COR) scanner. Representative images of the scanned plates and quantification of binding are shown. […]

| EC50 (Human αvβ6) [nM] | SMILES | accumulation in other explanted organs [1] |
| --- | --- | --- |
|  | CC[C@H](C)[C@H](NC(=O)[C@H](CCCNC(=N)N)NC(=O)[C@H](CC(C)C)NC(=O)[C@H](CC(=O)O)NC(=O)CNC(=O)[C@H](CCCNC(=N)N)NC(=O)[C@H](CC(C)C)NC(=O)[C@@H](NC(=O)[C@H](CCC(=O)O)NC(=O)[C@H](Cc1ccccc1)NC(=O)[C@@H](N)CSC1CC(=O)N(CCNC(=O)CCCCCN2C(=CC=C3CCCC(C=CC4=[N+](CCCCS(=O)(=O)[O-])c5ccc(S(=O)(=O)O)cc5C4(C)C)=C3Oc3ccc(S(=O)(=O)O)cc3)C(C)(C)c3cc(S(=O)(=O)O)ccc32)C1=O)[C@@H](C)O)C(=O)N[C@@H](CC(C)C)C(=O)N[C@@H](CO)C(=O)N[C@H](C(=O)N[C@@H](CC(C)C)C(=O)N[C@@H](CCCNC(=N)N)C(=O)N[C@H]1Cc2cn(nn2)CCCC[C@@H](C(=O)N[C@@H](CCCCN)C(=O)N[C@@H](CCC(=O)O)C(=O)N[C@@H](CC(C)C)C(=O)N[C@@H](CCC(N)=O)C(=O)N[C@@H](CC(=O)O)C(N)=O)NC(=O)[C@H](CC(C)C)NC(=O)[C@H](CC(N)=O)NC(=O)[C@H](CCC(N)=O)NC1=O)[C@@H](C)CC (stereo partly drawn) [5a-IRDye] | accumulated also in kidney, lung, and liver, and little or not at all in heart, brain, muscle, bone, spleen, intestine, and stomach |
| > 100 | CC[C@H](C)[C@H](NC(=O)[C@H](CCCNC(=N)N)NC(=O)[C@H](CCC(=O)O)NC(=O)[C@H](CCC(=O)O)NC(=O)CNC(=O)[C@H](CCCNC(=N)N)NC(=O)[C@H](CC(C)C)NC(=O)[C@@H](NC(=O)[C@H](CCC(=O)O)NC(=O)[C@H](Cc1ccccc1)NC(=O)[C@@H](N)CSC1CC(=O)N(CCNC(=O)CCCCCN2/C(=C\C=C3\CCCC(/C=C/C4=[N+](CCCCS(=O)(=O)O)c5ccc(S(=O)(=O)[O-])cc5C4(C)C)=C3Oc3ccc(S(=O)(=O)O)cc3)C(C)(C)c3cc(S(=O)(=O)O)ccc32)C1=O)[C@@H](C)O)C(=O)N[C@@H](CC(C)C)C(=O)N[C@@H](CO)C(=O)N[C@H](C(=O)N[C@@H](CC(C)C)C(=O)N[C@@H](CCCNC(=N)N)C(=O)N[C@@H](Cc1c[nH]cn1)C(=O)N[C@@H](CCC(N)=O)C(=O)N[C@@H](CC(N)=O)C(=O)N[C@@H](CC(C)C)C(=O)N[C@@H](CC(C)C)C(=O)N[C@@H](CCCCN)C(=O)N[C@@H](CCC(=O)O)C(=O)N[C@@H](CC(C)C)C(=O)N[C@@H](CCC(N)=O)C(=O)N[C@@H](CC(=O)O)C(N)=O)[C@@H](C)CC (stereo partly drawn) [2a-IRDye] (H-C(X1)FETLRGEERILSILRHQNLLKELQD-NH2) |  |
| > 100 | CC1(C)C(/C=C/C2=C(Oc3ccc(S(=O)(=O)O)cc3)C(=C\C=C3/N(CCCCCC(=O)NCCN4C(=O)CC(SC[C@H](N)C(=O)O)C4=O)c4ccc(S(=O)(=O)O)cc4C3(C)C)/CCC2)=[N+](CCCCS(=O)(=O)O)c2ccc(S(=O)(=O)[O-])cc21 (stereo partly drawn) [Cys-IRDye] |  |
